Experimental data from patent US5462929A, “Treatment of psoriasis by administration of 4-carbamoyl-1-β-D-ribofuranosylimidszolium-5-oleate” (Asahi Kasei Kogyo Kabushiki Kaisha, priority 1991, dated 1995).
Where two headings read alike, the source gives them in different places.

Assays:
psoriasis vulgaris = experiment: Clinical trial on treatment of psoriasis (PASI, adverse effect, overall improvement, usefulness); type: in vivo, human; parameters: key to usefulness: 1: extremely useful; 2: useful; 3: slightly useful; 4: useless; 5: worse; key to overall improvement rate: 1: significantly improved; 2: improved; 3: slightly improved; 4: no change; 5: exacerbation; conditions: 300 mg/day oral
From the text: 2. Subject: Patients of psoriasis.
(1) Psoriasis vulgaris with median grade which satisfied within the following standard.
a) No consideration for the distinction of sex, inpatient and outpatient.
b) aged over 15 and below 70.
c) PASI [Psoriasis area and Severity Index; Darmtologica, 157; 238-244, 1978: Table 4] over 20 at initial stage of the test.
(2) Following patients are omitted.
b) patients who have suffered with severe bacterial, viral or mycotic infection.
c) person with complication or anamesis of malignant tumor.
d) person with cardiac disorder, renal disorder, blood disorder, gastrointestinal bleeding, peptic ulcer, and other serious complication, and anamesis.
e) a person in pregnancy or in a lactation, and who suspects being pregnant.
f) in addition, persons who are determined by the doctors-in-charge as unfit to participate.
2) Term for dosage: 6 weeks
3) Prohibited other concomitant drugs.
Concomitant use of the following preparation and others are prohibited.
a) Oral dosage of methotrexate, other immunosuppressant, etretinate and steroid preparations.
b) Ultraviolet treatment.
c) Other medicament which seem to be effective for psoriasis [Chinese indigenous medicine (Kampo-Yaku), anti-allergic drug, etc.]
2) Calculation method of PASI:
PASI=0.1 (Eh+Ih+Dh)×Ah+0.3 (Et+It+Dt)×At+0.2 (Eu+Iu+Du)×Au+0.4 (El+Il+Dl)×Al
During the period of administration of the drug, accompanied symptoms, which have newly appeared and were thought to be closely related to and can not be denied with the relation for the administered medicament, are checked and searched in details of the fact, the day appeared, the day disappeared, degree, treatment, result and relation with the test drug, and studied the presence of adverse effect.
On the treatment of administration of the drug after 6 weeks, the results were evaluated.
Considering the progress of PASI, following five degrees of evaluation were applied as compared with the condition before administration.
Considering the overall improvement and safety evaluation such as adverse effect, following five degrees of evaluation were applied.

mice = conditions: cited from earlier work
[1] = system: Normal human epidermal keratinocyte cells (NHEK); experiment: Growth inhibition on cultured human epidermal keratinocyte cells, Coulter counter method; type: cell-based; conditions: for Number of cells/cm^2: control 95.5
Experimental: (§1) Normal human epidermal keratinocyte cells
(§2) (NHEK: human penile prepuce originated secondary cultured cells)
(§3) (1) NHEK was subcultured according to the instruction described in the manual for Epi Pack, to obtain tertiary subcultured cells. Epi Pack medium on arrival was exchanged by fresh K-C,M to which added attached bovine pituitary gland extract (BPE), then NHEK was cultured at 37° C. and on the first day, tertiary cultivation was performed under the same conditions.
On the day of starting initial cultivation:
NHEK, 2500 cells/cm^2 (5000 cell/well), was inoculated in six 24-well culture plates.
(§4) Cultured, day 5, day 7 and day 9: Photographs were taken on the central part of the two plates of 24-well culture plate, and calculated the number of cells.
On the remaining other plates, the medium was exchanged and mizoribine was added. (amount added: the same as above)
Method of calculating number of cells
On the cultivation, day 5, day 7 and day 9, respectively, one plate of 24-well culture plate was applied for calculating number of cells by Coulter counter, and the other one plate was applied for dye uptake method.
(a) Measurement by Coulter counter
Each well: washed with 0.2 ml of HEPES buffer saline
add 0.2 ml of trypsin/EDTA solution,
allow to stand at room temperature for 10 minutes,
then tap the 24-well culture plate by solid face to remove
added 0.3 ml of trypsin neutralization solution and separated
the cells by pipetting.
calculation of cells by Coulter counter
(counted particles over 7 μm .phi.)

[2] = system: rejection of the transplantation of an organ such as kidney; conditions: cited from earlier work
[3] = in vivo; cited from earlier work
[4] = system: Normal human epidermal keratinocyte cells (NHEK); experiment: Microscopical observation of cultured keratinocyte cells; type: cell-based; conditions: 0.8 and 4 μg/ml, days 5, 7, 9; ×76.5
Experimental: as §1, §2, §3, §4
Magnification of microscopic photographs is ×76.5 in each case.

[5] = clinical trials; cited from earlier work
rats = conditions: cited from earlier work
[6] = system: Normal human epidermal keratinocyte cells (NHEK); experiment: Growth inhibition on cultured human epidermal keratinocyte cells, dye uptake method
[7] = cited from earlier work
[8] = rat; cited from earlier work
[9] = system: Normal human epidermal keratinocyte cells (NHEK); experiment: Growth inhibition on cultured human epidermal keratinocyte cells, Coulter counter method; type: cell-based; conditions: mizoribine over 20 μg/ml, constant level; initial concentration 2.5×10^3 cells/ml

NC(=O)c1ncn([C@@H]2O[C@H](CO)[C@@H](O)[C@H]2O)c1O [Mizoribine, 4-carbamoyl-1-β-D-ribofuranosyl-imidazolium-5-olate]
overall improvement rate (psoriasis vulgaris; after 6 weeks): 2
usefulness (psoriasis vulgaris; after 6 weeks, overall improvement and safety): 2
Adverse effect (psoriasis vulgaris; individual patients No. 1-4, 6 weeks): None
PASI post (psoriasis vulgaris; patient No. 1, PASI pre 20, 6 weeks): 12
PASI post (psoriasis vulgaris; patient No. 2, PASI pre 41.4, 6 weeks): 20
PASI post (psoriasis vulgaris; patient No. 3, PASI pre 24.3, 6 weeks): 14
PASI post (psoriasis vulgaris; patient No. 4, PASI pre 21, 6 weeks): 12
LD50 (mice; female, i.m.): > 2800 mg/kg
LD50 (mice; female, i.v.): > 3042 mg/kg
LD50 (mice; female, p.o.): > 4883 mg/kg
LD50 (mice; female, s.c.): > 4883 mg/kg
LD50 (mice; male, i.m.): > 2800 mg/kg
LD50 (mice; male, i.v.): > 3042 mg/kg
LD50 (mice; male, p.o.): > 4883 mg/kg
LD50 (mice; male, s.c.): > 4883 mg/kg
Number of cells/cm^2 ([1]; 0.8 μg/ml, cultivation day 5, Coulter counter): 69.7 ×10^3 cells/cm^2
growth inhibition ([1]; 4 μg/ml): significant growth inhibition was observed and cells were grown extremely slowly
Number of cells/cm^2 ([1]; 4 μg/ml, cultivation day 5, Coulter counter): 8.6 ×10^3 cells/cm^2
growth inhibition ([1]; 8 μg/ml): significant growth inhibition was observed
Number of cells/cm^2 ([1]; 20 μg/ml, cultivation day 5, Coulter counter): 4.5 ×10^3 cells/cm^2
inhibition at 0.8 µg/mL ([1]; Homo sapiens, NHEK, 120 h, 0.8 μg/ml, cultivation day 5, Coulter counter, read-out: Inhibition rate): 27%
inhibition at 4 µg/mL ([1]; Homo sapiens, NHEK, 120 h, 4 μg/ml, cultivation day 5, Coulter counter, read-out: Inhibition rate): 91%
inhibition at 20 µg/mL ([1]; Homo sapiens, NHEK, 120 h, 20 μg/ml, cultivation day 5, Coulter counter, read-out: Inhibition rate): 95%
inhibition of growth of human epidermal keratinocyte cells at concentration presumed to be reached in clinical use ([1]; blood level approximately 1 μg/ml): effective for significant inhibition of growth of human epidermal keratinocyte cells
immunosuppressive activity / rejection of organ transplantation [2]: suppresses the rejection of the transplantation of an organ such as kidney
blood accumulation residue [3]: lower blood accumulation residue
nephrotoxicity [3]: no nephrotoxicity
transfer into brain [3]: less transfer into brain
morphology of cells [4]: changed widely expanded shape
Blood level [5]: approximately 1 μg/ml
LD50 (rats; female, i.m.): > 2800 mg/kg
LD50 (rats; female, i.v.): > 2606 mg/kg
LD50 (rats; female, s.c.): > 3975 mg/kg
LD50 (rats; male, i.m.): > 2800 mg/kg
LD50 (rats; male, i.v.): > 2572 mg/kg
LD50 (rats; male, p.o.): > 3100 mg/kg
LD50 (rats; male, s.c.): > 4161 mg/kg
growth inhibition rate, dye uptake method compared with Coulter counter method ([6]; mizoribine addition): slightly lower growth inhibition rate
OD665 value ([6]; where no difference in number of cells vs control by Coulter counter, lower level of concentration): Significant increase in the value at OD665
solubility in water [7]: easily soluble in water
Dermal level compared with plasma level [8]: almost equal in plasma level
number of cells [9]: approximately 4×10^3 cells/ml
